Assay results as given in patent publication US10155722B2, “Antitumor compound targeting IDH2 mutation and method of use thereof” (CHIA TAI TIANQING PHARMACEUTICAL GROUP CO., LTD., priority 2015, dated 2018).
Where two headings read alike, the source gives them in different places.

Experiments:
[1] = target: IDH2 (R172K, 40-end) (Homo sapiens (Human), UniProt P48735, R172K); assay: IDH2 (R172K, 40-end) inhibitory activity, NADPH depletion with diaphorase/resazurin readout; format: biochemical; settings: 80 nM enzyme, 40 μM NADPH, 4 mM α-KG
Sequence of IDH2 (R172K, 40-end) (P48735 40-452 R172K): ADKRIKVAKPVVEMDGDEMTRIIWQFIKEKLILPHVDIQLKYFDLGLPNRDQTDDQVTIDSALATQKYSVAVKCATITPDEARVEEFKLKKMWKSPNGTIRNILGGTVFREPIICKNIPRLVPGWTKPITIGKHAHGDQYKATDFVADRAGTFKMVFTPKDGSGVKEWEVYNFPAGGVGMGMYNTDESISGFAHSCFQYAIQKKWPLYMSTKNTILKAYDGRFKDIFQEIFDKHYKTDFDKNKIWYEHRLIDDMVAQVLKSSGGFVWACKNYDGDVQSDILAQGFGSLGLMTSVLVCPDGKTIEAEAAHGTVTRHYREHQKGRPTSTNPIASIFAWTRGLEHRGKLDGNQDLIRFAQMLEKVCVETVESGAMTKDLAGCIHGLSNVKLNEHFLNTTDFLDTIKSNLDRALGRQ
Protocol: The inhibitory activity of a compound against IDH2 (R172K, 40-end) was determined by the decrease of a helper factor NADPH. The test compound was pre-incubated with an enzyme and NADPH, and then a reaction was initiated by the addition of a-KG, and performed for 120 minutes under a linear condition. Then, the reaction was terminated by the addition of diaphorase (lipoamide dehydrogenase) and the corresponding substrate resazurin. Diaphorase terminated the IDH2m reaction by decreasing the available helper factor NADPH, which oxidized NADPH to NADP, and reduced resazurin to highly fluorescent resorufin. The amount of remaining helper factor NADPH after a specific reaction time was quantified via an easily detectable fluorophore. Specifically, 2.5 μl of a 3-fold gradient diluted test compound was added to a 384-well plate, and then 5 μl of a reaction buffer (20 mM Tris-HCl, PH7.5; 150 mM NaCl; 10 mM MgC12; 10 mM MnCl2; 0.4 mg/ml BSA and 2 mM DTT) containing 80 nM IDH2 (R172K, 40-end) and 40 μM NADPH was added. Then, the resulting test mixture was incubated for 120 minutes at a temperature of 23° C., and then 2.5 μl of the reaction buffer containing 4 mM α-KG was added to initiate the reaction. After incubating for 120 minutes at room temperature, 5 μl of a termination mixture (0.4 U/ml diaphorase and 40 μM resazurin) prepared with the reaction buffer was added to convert resazurin to resorufin to determine the remaining NADPH. After incubating for 10 minutes at a temperature of 23° C., a fluorescence value was determined through Flexstation 3 at Ex535/Em595.

[2] = tested on: glioma cells carrying the IDH1 mutant; settings: cited from earlier work
[3] = tested on: cells carrying the most common IDH1 mutant; settings: cited from earlier work
[4] = tested on: glioma cells; settings: oral administration to mice with a transplanted tumour; cited from earlier work
[5] = tested on: glioma cells; settings: treatment of cell cultures; cited from earlier work
[6] = Pharmacokinetics parameters in rats after intragastric administration; format: in vivo; settings: for AUC(0-inf) / Cmax / Tmax / half-life: rat, po, male rats, intragastric, single dose 5 mg/kg, plasma; for half-life (in words) / metabolism in vivo (in words) / plasma concentration compared with AG-6780 at the same dose: rats, 5 mg/kg intragastric
Protocol: The pharmacokinetic parameters of compounds of the present application were determined by using the following method.
Healthy male adult rats (7-9 weeks old) were used in this study. Each group of animals (3 male rats) was intragastrically administered once at a single dose of 5 mg/kg with 10% DMSO+70% PEG400+20% NS as adjuvants. The animals in the intragastric administration group were fasted overnight before this study. The fasting time period was from 10 hours before administration to 4 hours after administration.
Blood samples were taken at 0.25, 0.5, 1, 2, 4, 6, 8 and 24 h after administration. The animals were anesthetized with isoflurane using an animal anesthesia machine, and then 0.3 mL whole blood samples were taken from the fundus venous plexus. The blood samples were placed in heparin anticoagulant tubes, and centrifuged for 5 min at 4° C. and 4000 rpm. The resulting plasmas were transferred to centrifuge tubes, and stored at −80° C. until analysis.
Verified LC-MS/MS method was used to analyze the plasma samples. Plasma concentration-time data of animals were analyzed using WinNonlin (Professional Edition, version 6.3; Pharsight Company) software. The non-compartmental model was introduced for concentration analysis.

[7] = tested on: cells carrying the most common IDH2 mutant; settings: cited from earlier work
[8] = tested on: leukemia cells carrying the IDH2 mutant; settings: cited from earlier work

Cc1cc(-c2ccc(C(F)(F)C(=O)NC3CC3)cc2NC(=O)Nc2cccc(C(F)(F)F)c2)n(C)n1 [Example 13, N-cyclopropyl-2-(4-(1,3-dimethyl-1H-pyrazol-5-yl)-3-(3-(3-(trifluoromethyl)phenyl)ureido)phenyl)-2,2-difluoroacetamide]
IC50 [1]: 106 nM

N#CC1(NC(=O)C(F)(F)c2ccc(-c3ccsc3)c(NC(=O)Nc3cccc(C(F)(F)F)c3)c2)CC1 [Example 4, N-(1-cyanocyclopropyl)-2,2-difluoro-2-(4-(thiophen-3-yl)-3-(3-(3-(trifluoromethyl)phenyl)ureido)phenyl)acetamide]
IC50 [1]: 56.5 nM

O=C(Nc1cccc(C(F)(F)F)c1)Nc1cc(C(=O)NC2CC2)ccc1-c1ccsc1 [Example 23, N-cyclopropyl-4-(thiophen-3-yl)-3-(3-(3-(trifluoromethyl)phenyl)ureido)benzamide]
IC50 [1]: 551 nM

CC(NC1CC1)c1ccc(-c2ccsc2)c(NC(=O)Nc2cccc(C(F)(F)F)c2)c1 (centres unmarked) [Example 24, 1-(5-(1-(cyclopropylamino)ethyl)-2-(thiophen-3-yl)phenyl)-3-(3-(trifluoromethyl)phenyl)urea]
IC50 [1]: 312 nM

Cc1ccccc1C(C(=O)NC1CCCCC1)N(C(=O)Cn1ccnc1C)c1cccc(F)c1 (centres unmarked) [AGI-5198]
expression of mature markers [2]: enhanced expression of mature markers
generation of 2-HG [3]: inhibit the generation of 2-HG
growth rate of glioma cells [4]: inhibit the growth rate
growth rate of glioma cells [5]: inhibit the growth rate

O=C(Nc1cccc(C(F)(F)F)c1)Nc1cc(C2(C(=O)NC3CC3)CC2)ccc1-c1ccsc1 [Example 17, N-cyclopropyl-1-(4-(thiophen-3-yl)-3-(3-(3-(trifluoromethyl)phenyl)ureido)phenyl) cyclopropanecarboxamide]
IC50 [1]: 138 nM

NC(C(=O)NC1CC1)c1ccc(-c2ccsc2)c(NC(=O)Nc2cccc(C(F)(F)F)c2)c1 (centres unmarked) [Example 21, 2-Amino-N-cyclopropyl-2-(4-(thiophen-3-yl)-3-(3-(3-(trifluoromethyl)phenyl)ureido)phenyl)acetamide]
IC50 [1]: 622 nM

O=C(Nc1cccc(C(F)(F)F)c1)Nc1cc(C(F)(F)C(=O)NCC(F)(F)F)ccc1-c1ccsc1 [Example 2]
IC50 [1]: 45.5 nM

CC(C)NC(=O)C(F)(F)c1ccc(-c2ccsc2)c(NC(=O)Nc2cccc(C(F)(F)F)c2)c1 [Example 3]
IC50 [1]: 62.4 nM

CCC(C(=O)NC1CC1)c1ccc(-c2ccsc2)c(NC(=O)Nc2cccc(C(F)(F)F)c2)c1 (centres unmarked) [Example 20, N-cyclopropyl-2-(4-(thiophen-3-yl)-3-(3-(3-(trifluoromethyl)phenyl)ureido)phenyl) butanamide]
IC50 [1]: 362 nM

CC(C)(C(=O)NC1CC1)c1ccc(-c2ccsc2)c(NC(=O)Nc2ccc3c(c2)C(=O)NC3)c1 [Example 18, N-cyclopropyl-2-methyl-2-(3-(3-(3-oxoisoindol-5-yl)ureido)-4-(thiophen-3-yl)phenyl) propanamide]
IC50 [1]: 1230 nM

O=C(Nc1cccc(C(F)(F)F)c1)Nc1cc(S(=O)(=O)NC2CC2)ccc1-c1ccsc1 [AGI-6780, reference compound]
AUC(0-inf) [6]: 559 ng·h/mL
Cmax [6]: 191 ng/mL
Tmax [6]: 2.83 h
half-life [6]: 1.49 h
generation of 2-HG [7]: inhibit the generation of 2-HG
expression of mature markers [8]: enhanced expression of mature markers

O=C(Nc1cccc(C(F)(F)F)c1)Nc1cc(C(F)(F)C(=O)NC2CC2)ccc1-c1ccccc1 [Example 12, N-cyclopropyl-2,2-difluoro-2-(2-(3-(3-(trifluoromethyl)phenyl)ureido)-[1,1′-biphenyl]-4-yl)acetamide]
IC50 [1]: 53.8 nM

O=C(Nc1ccc(F)c(C(F)(F)F)c1)Nc1cc(C(F)(F)C(=O)NC2CC2)ccc1-c1ccsc1 [Example 10, N-cyclopropyl-2,2-difluoro-2-(3-(3-(4-fluoro-3-(trifluoromethyl)phenyl)ureido)-4-(thiophen-3-yl)phenyl)acetamide]
IC50 [1]: 391 nM

O=C(Nc1cccc(C(F)(F)F)c1)Nc1cc(C2(C(=O)NC3CC3)CCC2)ccc1-c1ccsc1 [Example 19, N-cyclopropyl-1-(4-(thiophen-3-yl)-3-(3-(3-(trifluoromethyl)phenyl)ureido)phenyl) cyclobutanecarboxamide]
IC50 [1]: 87.5 nM

CC(NC(=O)C1CC1)c1ccc(-c2ccsc2)c(NC(=O)Nc2cccc(C(F)(F)F)c2)c1 (centres unmarked) [Example 27, N-(1-(4-(thiophen-3-yl)-3-(3-(3-(trifluoromethyl)phenyl)ureido)phenyl)ethyl) cyclopropanecarboxamide]
IC50 [1]: 82.9 nM

O=C(Nc1cccc(C(F)(F)F)c1)Nc1cc(CNC(=O)C2CC2)ccc1-c1ccsc1 [Example 28, N-(4-(thiophen-3-yl)-3-(3-(3-(trifluoromethyl)phenyl)ureido)benzyl) cyclopropanecarboxamide]
IC50 [1]: 55 nM
AUC(0-inf) [6]: 844 ng·h/mL
Cmax [6]: 414 ng/mL
Tmax [6]: 0.33 h
half-life [6]: 2.34 h
half-life (in words) [6]: long half-life
metabolism in vivo (in words) [6]: very good metabolism in vivo
plasma concentration compared with AG-6780 at the same dose [6]: higher plasma concentration

O=C(Cc1ccc(-c2ccsc2)c(NC(=O)Nc2cccc(C(F)(F)F)c2)c1)NC1CC1 [Example 16]
IC50 [1]: 75.8 nM

CC(C)(C(=O)NC1CC1)c1ccc(-c2ccsc2)c(NC(=O)Nc2cccc(C(F)(F)F)c2)c1 [Example 15, N-cyclopropyl-2-methyl-2-(4-(thiophen-3-yl)-3-(3-(3-(trifluoromethyl)phenyl)ureido)phenyl)propanamide]
IC50 [1]: 65.7 nM

O=C(Nc1cccc(C(F)(F)F)c1)Nc1cc(C(F)(F)C(=O)NC2COC2)ccc1-c1ccsc1 [Example 5, 2,2-Difluoro-N-(oxetan-3-yl)-2-(4-(thiophen-3-yl)-3-(3-(3-(trifluoromethyl)phenyl)ureido)phenyl)acetamide]
IC50 [1]: 29.5 nM
AUC(0-inf) [6]: 858 ng·h/mL
Cmax [6]: 495 ng/mL
Tmax [6]: 0.42 h
half-life [6]: 4.37 h
half-life (in words) [6]: long half-life
metabolism in vivo (in words) [6]: very good metabolism in vivo
plasma concentration compared with AG-6780 at the same dose [6]: higher plasma concentration

CC(C(=O)NC1CC1)c1ccc(-c2ccsc2)c(NC(=O)Nc2cccc(C(F)(F)F)c2)c1 (centres unmarked) [Example 14, N-cyclopropyl-2-(4-(thiophen-3-yl)-3-(3-(3-(trifluoromethyl)phenyl)ureido)phenyl) propanamide]
IC50 [1]: 69.9 nM

O=C(Nc1cccc(C(F)(F)F)c1)Nc1cc(C(F)(F)C(=O)NC2CC2)ccc1-c1ccsc1 [Example 1, N-cyclopropyl-2,2-difluoro-2-(4-(thiophen-3-yl)-3-(3-(3-(trifluoromethyl)phenyl)ureido)phenyl)acetamide]
IC50 [1]: 14.2 nM
